Patent US12544395B2, “Combination compositions comprising a beta-lactamase inhibitor and uses thereof” (priority 2018, dated 2026)
In brackets after ≈: the same amount, converted by molar mass. Several values for one entry are separate records, joined by “and”; a condition that tells them apart may be missing. Equal entries are not always repeated. One block for each molecule: values may come before it.

What was measured:
[1] = Metabolic stability in intestinal S9; type: in vitro ADME; settings: Human, test conc. 3 μM
[2] = Metabolic stability in intestinal S9; type: in vitro ADME, Sprague-Dawley rat; settings: Rat, test conc. 3 μM
[3] = Metabolic stability in intestinal S9; type: in vitro ADME, beagle dog; settings: Dog, test conc. 3 μM
[4] = Metabolic stability in plasma; type: in vitro ADME, beagle dog; settings: Dog, test conc. 3 μM
[5] = Metabolic stability in liver S9; type: in vitro ADME, Sprague-Dawley rat; settings: Rat, test conc. 3 μM
[6] = Metabolic stability in plasma; type: in vitro ADME; settings: Sprague-Dawley, Rat, test conc. 3 μM
[7] = Metabolic stability in liver S9; type: in vitro ADME, cynomolgus monkey; settings: Monkey, test conc. 3 μM
[8] = Metabolic stability in liver S9; type: in vitro ADME; settings: Human, test conc. 3 μM
[9] = Metabolic stability in intestinal S9; type: in vitro ADME, CD-1 mouse; settings: Mouse, test conc. 3 μM
[10] = Metabolic stability in liver S9; type: in vitro ADME, beagle dog; settings: Dog, test conc. 3 μM
[11] = Metabolic stability in plasma; type: in vitro ADME; settings: Human, test conc. 3 μM
[12] = Metabolic stability in plasma; type: in vitro ADME; settings: cynomolgus, Monkey, test conc. 3 μM
[13] = Metabolic stability in liver S9; type: in vitro ADME, CD-1 mouse; settings: Mouse, test conc. 3 μM
[14] = Metabolic stability in intestinal S9; type: in vitro ADME, cynomolgus monkey; settings: Monkey, test conc. 3 μM
[15] = Metabolic stability in plasma; type: in vitro ADME, CD-1 mouse; settings: CD-1, plasma; Mouse; test conc. 3 μM
[16] = Single ascending dose pharmacokinetics, Solutol HS-15:Water (10:90); type: in vivo, Beagle dogs; settings: Compound 1 300 mg/kg PO, non-fasted
[17] = Oral dosing formulation in Solutol HS-15:Water, solution/emulsion stability; type: physicochemical
Procedure: (§1) This study included dose concentrations ranging from 2-120 mg/mL.
as §1

[18] = test system: KPC-expressing Enterobacteriaceae (n = 77); assay: organism not typed; type: cell-based
[19] = test system: AmpC/CMY-expressing Enterobacteriaceae (n = 44); assay: Broth microdilution MIC, ceftibuten/Compound 2 vs IV comparators; type: cell-based
[20] = test system: OXA-48-expressing Enterobacteriaceae (n = 39); assay: as above
[21] = test system: ESBL-expressing Enterobacteriaceae (n = 33); assay: as above; type: cell-based
[22] = Solutol HS-15:Water (10:90 v/v)
[23] = Solutol HS-15:Water (20:80 v/v)

- half-life at 3 μM ([1]; intestinal S9): 35.6 min
- half-life at 3 μM ([2]; Sprague-Dawley, intestinal S9): 7.4 min
- half-life at 3 μM ([3]; beagle, intestinal S9): > 120 min
- half-life at 3 μM ([4]; beagle, plasma): 26.2 min
- half-life at 3 μM ([5]; Sprague-Dawley, liver S9): 10.2 min
- half-life at 3 μM [6]: 0.8 min
- half-life at 3 μM ([7]; cynomolgus, liver S9): 4.3 min
- half-life at 3 μM ([8]; liver S9): 3.4 min
- half-life at 3 μM ([9]; CD-1, intestinal S9): 2.5 min
- half-life at 3 μM ([10]; beagle, liver S9): 4.7 min
- half-life at 3 μM ([11]; plasma): 4.8 min
- half-life at 3 μM [12]: 12.4 min
- half-life at 3 μM ([13]; CD-1, liver S9): 2.4 min
- half-life at 3 μM ([14]; cynomolgus, intestinal S9): 16.9 min
- half-life at 3 μM [15]: 0.6 min
SMILES: COCC1=C(C(=O)OC(C)OC(=O)OC(C)C)N2C(=O)[C@@H](NC(=O)/C(=N\OC)c3csc(N)n3)[C@H]2SC1 (stereo partly shown) [Cefpodoxime proxetil]

SMILES: CCC(=O)N[C@H]1Cc2cccc(C(=O)OCOC(=O)C(CC)CC)c2OB1O [Compound 1, ((2-Ethylbutanoyl)oxy)methyl (R)-2-hydroxy-3-propionamido-3,4-dihydro-2H-benzo[e][1,2]oxaborinine-8-carboxylate]
- Intestinal S9 Half-life [1]: 2.9 min
- Intestinal S9 Half-life [2]: 3.9 min
- Intestinal S9 Half-life [3]: 49.0 min
- Plasma Half-life [4]: 43.9 min
- dogs exhibiting emesis [16]: 3 of 4
- Liver S9 Half-life [5]: 2.3 min
- half-life at 3 μM [6]: 1.6 min
- Liver S9 Half-life [7]: 0.8 min
- Liver S9 Half-life [8]: 1.0 min
- homogeneous and chemically-stable solution up to a concentration [17, 22]: ≤ 30 mg/mL
- physically- and chemically-stable emulsion at concentrations [17, 22]: 31 to 100 mg/mL
- homogeneous and chemically-stable solution up to a concentration [17, 23]: ≤ 60 mg/mL
- physically- and chemically-stable emulsion at concentrations [17, 23]: 61 to 200 mg/mL
- Intestinal S9 Half-life [9]: 1.1 min
- Liver S9 Half-life [10]: 0.5 min
- Plasma Half-life [11]: 10.7 min
- half-life at 3 μM [12]: 22 min
- Liver S9 Half-life [13]: 1.2 min
- Intestinal S9 Half-life [14]: 11.2 min
- half-life at 3 μM [15]: 4.6 min

SMILES: NC[C@H]1O[C@H](O[C@H]2[C@H](O)[C@@H](O[C@H]3O[C@H](CO)[C@@H](O)[C@H](N)[C@H]3O)[C@H](N)C[C@@H]2N)[C@H](N)C[C@@H]1O [Tobramycin]
- Number of strains at MIC value 0.5 mg/L ([18]; KPC-expressing (n = 77)): 3
- Number of strains at MIC value 1 mg/L ([18]; KPC-expressing (n = 77)): 0
- Number of strains at MIC value 2 mg/L ([18]; KPC-expressing (n = 77)): 2
- Number of strains at MIC value 4 mg/L ([18]; KPC-expressing (n = 77)): 0
- Number of strains at MIC value 8 mg/L ([18]; KPC-expressing (n = 77)): 3
- Number of strains at MIC value 16 mg/L ([18]; KPC-expressing (n = 77)): 3
- Number of strains at MIC value […] ([18]; KPC-expressing (n = 77)): 0 and 1
- Number of strains at MIC value ≤0.06 mg/L ([18]; KPC-expressing (n = 77)): 0
- Number of strains at MIC value ≥32 mg/L ([18]; KPC-expressing (n = 77)): 65
- MIC50 ([18]; iv): ≥ 32 µg/mL
- MIC90 ([18]; iv): ≥ 32 µg/mL
- Number of strains at MIC value 0.5 mg/L ([19]; AmpC/CMY-expressing (n = 44)): 2
- Number of strains at MIC value 1 mg/L ([19]; AmpC/CMY-expressing (n = 44)): 2
- Number of strains at MIC value 2 mg/L ([19]; AmpC/CMY-expressing (n = 44)): 0
- Number of strains at MIC value 4 mg/L ([19]; AmpC/CMY-expressing (n = 44)): 3
- Number of strains at MIC value 8 mg/L ([19]; AmpC/CMY-expressing (n = 44)): 3
- Number of strains at MIC value 16 mg/L ([19]; AmpC/CMY-expressing (n = 44)): 6
- Number of strains at MIC value […] ([19]; AmpC/CMY-expressing (n = 44)): 0
- Number of strains at MIC value ≤0.06 mg/L ([19]; AmpC/CMY-expressing (n = 44)): 0
- Number of strains at MIC value ≥32 mg/L ([19]; AmpC/CMY-expressing (n = 44)): 28
- MIC50 ([19]; iv): ≥ 32 µg/mL
- MIC90 ([19]; iv): ≥ 32 µg/mL
- MIC50 [20]: 16 µg/mL (≈ 34.2 µM)
- MIC90 [20]: ≥ 32 µg/mL
- Number of strains at MIC value 0.5 mg/L ([21]; ESBL-expressing (n = 33)): 3
- Number of strains at MIC value 1 mg/L ([21]; ESBL-expressing (n = 33)): 5
- Number of strains at MIC value 2 mg/L ([21]; ESBL-expressing (n = 33)): 2
- Number of strains at MIC value 4 mg/L ([21]; ESBL-expressing (n = 33)): 1
- Number of strains at MIC value 8 mg/L ([21]; ESBL-expressing (n = 33)): 1
- Number of strains at MIC value 16 mg/L ([21]; ESBL-expressing (n = 33)): 4
- Number of strains at MIC value […] ([21]; ESBL-expressing (n = 33)): 0
- Number of strains at MIC value ≤0.06 mg/L ([21]; ESBL-expressing (n = 33)): 0
- Number of strains at MIC value ≥32 mg/L ([21]; ESBL-expressing (n = 33)): 17
- MIC50 ([21]; iv): ≥ 32 µg/mL
- MIC90 ([21]; iv): ≥ 32 µg/mL
